For one experiment, the target named is Sigma-2 receptor (S2R) (Homo sapiens (Human), UniProt Q5BJF2). The experiment can be described thus: Sigma-2 receptor in-vitro binding assay.
The subject of experiment [1] is B104 rat neuroblastoma cells. The experiment can be described thus: BDNF release in-situ ELISA in B104 neuroblastoma cells. Type of experiment: cell-based. The note with it: 5 days. The source says:
[…]. Compound 4 alone had no effect on BDNF secretion—(1.5%). […]. Compound 4 alone had no effect on BDNF secretion (−1.5%). […].
A general note: An ELISA detects its analyte on a solid surface through an enzyme-linked reagent.

Experiment [2] has as its system female MeCP2 heterozygous (Rett) mice. Particulars: for Recovery of overall gait features: female Rett mice, 30 mg/kg bid. As for the experimental part: FIG. 1: Feature recovery as a measure of the therapeutic drug effect on Mecp2-KO Rett Syndrome model mice. This figure is intended to provide an explanation as to how the data is analyzed in FIGS. 4, 5 and 12.
Left: “the cloud graph”: Visualization of the control−disease−(disease+treatment) groups relationship in the optimal discrimination feature space.
The drug treatment effect can be represented as a combination of two components: one along the direction of the “recovery line” (the line connecting the centers of the control (WT) and disease (MECP2-KO) clouds, shown as a thick arrow to the left with diagonal lines on top), and the component orthogonal to (“pointing away” from) that direction shown as an arrow pointing up with parallel lines within. The relative length of the “recovery” arrow with respect to the control-disease distance can then be interpreted as the “recovery due to the drug”, whereas the relative length of the “other effect” (orthogonal with parallel lines inside) arrow represents feature changes that move the disease mice+treatment group away from the control group. The summary of this analysis can be effectively represented as a bar graph (right pane in FIG. 1A) which is typically referred to as the recovery signature.
Right: “the recovery signature” graph: The bar graph represents the summary of the recovery analysis. The overlap and discrimination probability sum up to 100%. The recovery ranges from […]. The lower the overlap, the better the quality of the disease model, and the higher the discrimination power between the WT and Rett mice groups. The “other behavioral effect” is in the same relative units (relative to the length of the distance between the WT and Rett mice groups).
The NeuroCube® system is a platform that employs computer vision to detect changes in gait geometry and gait dynamics in rodent models of neurological disorders, pain & neuropathies. This platform is unique for gait testing for the following reasons: • It is completely automated and thus removes any bias or subjectivity • This system captures both gait geometry and gait dynamics (stance, swing, propulsion, etc.)
Mice were placed in the NeuroCube for a 5 min test. The most dominant of the features collected that define the disease phenotype (symptom descriptors) was identified and ranked. Complex bioinformatic algorithms were employed to calculate the discrimination probability between the WT and the Rett HET MeCP2 mice and detect a test compound's ability to reverse the disease phenotype. Discriminations between mutant and wild type was calculated as well as the recovery of disease features in Rett HET MeCP2 mice treated with the test compound.
The output of NeuroCube is a set of dozens of behavioral features that are submitted for analysis with machine learning techniques used in bioinformatics. Many of these features are correlated (e.g. rearing counts and supported rearing counts). Therefore, PGI forms statistically independent combinations of the original features (further referred to as de-correlated features) that discriminate between the two groups more effectively.
Each de-correlated feature extracts information from the whole cluster of the original features, so the new feature space has lower dimensionality. Next, PGI applies a proprietary feature ranking algorithm to score each feature's discrimination power (ability to separate the two groups, e.g. control and disease).
Ranking is an important part of the analyses because it weighs each feature change by its relevance: if there is a significant change in some irrelevant feature measured for a particular phenotype, the low rank of this feature will automatically reduce the effect of such change in the analyses, so there is no need to resort to the conventional “feature selection” approach and discard information buried in the less informative features.

Experiment [3] has the same test system. Particulars: 3 mg/kg bid. As for the experimental part: (§1) Dosing commenced when mice were ˜5.5 weeks of age and continued through the end of behavioral testing. Behavioral testing was done at 8 and 12 weeks of age.
Mice were placed in the PPI chambers (Med Associates) for a 5 min session of white noise (70 dB) habituation.
The inter-trial interval was variable with an average of 15 s (range from 10 to 20 s).

The subject of experiment [4] is BDNF transcripts (BDNF I, IV, VI, IX) mRNA. The note with it: whole brain, Rett mice. From the text:
FIGS. 6A-6C, 7, 8, 9, 10: These figures display mRNA levels of BDNF transcripts measured in the brains of female heterozygous MeCP2 (Rett) mice. […] The relative quantity of the gene target is normalized to the geometric means of the relative quantity of the housekeeping genes APT5B, GAPDH and RPK12A. Relative level of the target gene was then normalized to the WT vehicle group. All data are represented as the mean±SEM. ANOVA followed by Tukey's multiple comparisons test.
Mice were euthanized via cervical dislocation and decapitated. From 10 mice/treatment group, whole brains were collected, weighed, and then frozen on dry ice. Samples were stored at −80° C. until analysis of brain-derived neurotrophic factor (BDNF).
Tissues (whole brain) were homogenized, and RNA extracted and quantified. An aliquote was reverse-transcribed into cDNA.
Up to three independent RT reactions were performed for each RNA sample. qPCR was performed using the primers detailed in Table 5 below.
Whole brain cDNA prepared from a pooled sample of WT vehicle treated animals was used as calibrator (calibrator is diluted same as sample cDNA) to normalized plate-to-plate variations. Each cDNA sample (diluted 1:10) was assayed in triplicates and the Ct values averaged.
Relative quantity of the PCR product (relative to the calibrator) was calculated as follows:
Relative Quantity of Target gene=(PCR EfficiencyTarget)^(Ct caltbrator-Ctsample)
Geometric mean=(relative quantity of housekeeping gene1*relative quantity of housekeeping gene2*relative quantity of housekeeping gene3)^(1/3)
Relative Quantity of Target gene Geometric mean of housekeeping genes
Relative level of target gene was then normalized to the WT vehicle group.

For experiment [5], the system named is B6.129P2-Mecp2tm2Bird/J (Rett-KO) male mice. The note with it: 30 mg/kg bid. As for the experimental part: The room temperature was maintained between 20 and 23° C. with a relative humidity maintained around 50%. Chow and water were provided ad libitum for the duration of the study.
Experiment [6] concerns Rett disease gene expression signature.
The subject of experiment [7] is cultured cortical neurons from the HD YAC128 mouse model. Particulars: Smith-Dijak et al., 2019; cited from earlier work.
Experiment [8] deals with female MeCP2 heterozygous (Rett) mice. Particulars: 30 mg/kg bid orally, 8 weeks of age. As for the experimental part: Clasping is used to assess muscular strength in limb muscles. Hindlimb clasping is measured in mice held by the tail and gently lifted until the front paws just lift off the counter surface. The experimenter observes the legs and determines clasping or splaying of limbs. […] Data are mean±SEM, N-1 two-proportional tests.
as §1
Mice were held by the tail and gently lifted until the front paws just lift off the counter surface. The experimenter observed the legs and determined clasping or splaying of limbs. After testing, animals were placed back into the test or home cage. Percent clasping of the hindlimbs was determined and reported.

The test system of the next experiment is early HD patients. Particulars: 45 mg bid.
Experiment [9] deals with B104 rat neuroblastoma cells. Particulars: in-situ ELISA, Geva et al. 2016; cited from earlier work.

Several values for one entry are separate records, joined by “and”; a condition that tells them apart may be missing. Equal values may be shown once. Read-outs that look alike come from different tables or passages of the source.

Sequence of Sigma-2 receptor (S2R) (Q5BJF2 whole entry, species assumed): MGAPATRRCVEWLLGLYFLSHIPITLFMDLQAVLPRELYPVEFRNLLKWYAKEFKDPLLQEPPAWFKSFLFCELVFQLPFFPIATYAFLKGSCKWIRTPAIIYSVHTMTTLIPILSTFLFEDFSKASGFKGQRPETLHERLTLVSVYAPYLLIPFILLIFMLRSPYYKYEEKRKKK
From the text for early HD patients: Change from baseline in UHDRS TMS gait balances week 26 (A) and Week 52(B) in early HD (baseline TFC 7-13) patients in the PRIDE-HD study.
Change from baseline in UHDRS TMS gait and balances scale at weeks 26 and 52 in early HD (baseline TFC 7-13).

For the compound `CCCN1CCC(O)(c2cccc(S(C)(=O)=O)c2)CC1` [Compound 1], the “S1R fold selectivity (S2R/S1R)” value at Sigma-2 receptor (S2R) is given as more than 270 fold. Further, the “Increase in BDNF release vs untreated control” value in experiment [1] (Compound 1 alone 1 μM) is 12.5%.
`CCCN1CC[C@@H](c2cccc(S(C)(=O)=O)c2)[C@@H](O)C1` [Compound 4]: the “S1R fold selectivity (S2R/S1R)” value at Sigma-2 receptor (S2R) was more than 35 fold.
Turning to `CCCN1CCC(c2cccc(S(C)(=O)=O)c2)CC1` [Pridopidine, 4-[3-(methylsulfonyl)phenyl]-1-propyl-piperidine], the “% Recovery 3 mg/kg BID, Body Motion” value is 81%, in [2] (8 weeks, 3 mg/kg BID) and 65%, in [2] (12 weeks, 3 mg/kg BID). The “% Recovery 3 mg/kg BID, Gait” value in [2] (8 weeks, 3 mg/kg BID) was 38%,; in [2] (12 weeks, 3 mg/kg BID), 60%,. For the same compound, the “% Recovery 30 mg/kg BID, Body Motion” value in experiment [2] (8 weeks, 30 mg/kg BID) is listed as 84%,; in [2] (12 weeks, 30 mg/kg BID), 59%,. In addition, the “% Recovery 30 mg/kg BID, Gait” value in experiment [2] (8 weeks, 30 mg/kg BID) is on record as 71%,; in experiment [2] (12 weeks, 30 mg/kg BID), 100%,. The “% Recovery 3 mg/kg BID, Paw Positioning” value in experiment [2] (12 weeks, 3 mg/kg BID) is on record as 35%,. Moreover, in experiment [2] (12 weeks, 30 mg/kg BID), the “% Recovery 30 mg/kg BID, Paw Positioning” value is on record as 52%,. Moreover, the “Recovery of overall gait features” value in [2] (8 weeks of age) was found to be 45%; in experiment [2] (12 weeks of age), 55%. For the same compound, the “Rescue effect on mean startle response” value in experiment [3] (8 weeks of age) was approximately 40%; in [3] (12 weeks of age), approximately 50%. Besides, the “Increase of BDNF IV mRNA levels” value in experiment [4] (3 mg/kg bid and 30 mg/kg bid) was approximately 30%. The “Effect on mRNA expression of housekeeping genes ATP5B, GAPDH, RPL13A” value in experiment [4] (3 and 30 mg/kg bid) is listed as “does not affect”. Besides, the “Effect on BDNF I mRNA levels” value in experiment [4] (3 or 30 mg/kg bid) is “does not affect”. The “Effect on BDNF VI mRNA levels” value in [4] (3 or 30 mg/kg bid) was “does not affect”. The “Recovery of gait deficits” value stood at 44% in experiment [5] (6 weeks of age) and 100% in [5] (7 weeks of age). Moreover, the “Increase in BDNF release vs untreated control” value was 13.6% and 13.5% in experiment [1] (pridopidine alone 0.001 μM); 26% in [1] (pridopidine alone 0.005 μM); 3.4% in experiment [1] (pridopidine alone 0.01 μM ([…] in FIG. 17 legend)). Moreover, in experiment [6] (30 mg/kg BID, BDNF-TrkB pathway genes), the “NES (normalized enrichment score), genes downstream to BDNF” value came to 1.752. The “NES (normalized enrichment score)” value in experiment [6] (cortex, 3 mg/kg BID, geneset Prido Down / Rett Up) was 1.356; in experiment [6] (cortex, 3 mg/kg BID, geneset Prido Up / Rett Down) it was 1.477; in experiment [6] (cortex, 30 mg/kg BID, geneset Prido Down / Rett Up) it was 2.081; in experiment [6] (cortex, 30 mg/kg BID, geneset Prido Up / Rett Down), −2.631; in experiment [6] (striatum, 3 mg/kg BID, geneset Down with Prido / Up in Rett), 2.18; in [6] (striatum, 3 mg/kg BID, geneset Up with Prido / Down in Rett), −2.50. The “NES (normalized enrichment score)” value in [6] (striatum, 30 mg/kg BID, geneset Up with Prido / Down in Rett) is on record as −1.77. For the same compound, in [6] (striatum and cortex of Rett mice, GSEA), the “Reversal of Rett gene expression pattern” value is on record as “strongly reverses”. In addition, in [7], the “Impaired homeostatic synaptic plasticity (HSP)” value is given as “restores impaired HSP”. Besides, the “Percent clasping of the hindlimbs” value is listed as “zero” in experiment [8] and 0% in experiment [8] (listed as pridopidine). Besides, the “UHDRS TMS gait and balance, Δ from placebo” value in the experiment on early HD patients (HD1 (TFC 11-13), Week 26) was −0.31; in the experiment on early HD patients (HD1 (TFC 11-13), Week 52), −0.94; in the experiment with early HD patients (HD2 (TFC 7-10), Week 26) it was −0.53; in the experiment on early HD patients (HD2 (TFC 7-10), Week 52) it was −0.18; in the experiment with early HD patients (early HD (TFC 7-13), Week 26), −0.48; with early HD patients (early HD (TFC 7-13), Week 52) it was −0.41. Besides, the “BDNF secretion in rat neuroblastoma cells” value in experiment [9] was “dose dependent increase”.

The values above are taken from patent US20230414596A1 (PRILENIA NEUROTHERAPEUTICS LTD., priority 2020, published 2023).
